Experiments:
Test in all cases: concentration in plasma after dosing
rat [1] = conditions: dosed: Nilvadipine, 10.0000000000 mg/kg, oral, male, Sprague-Dawley
rat [2] = conditions: Sprague-Dawley
rat [3] = conditions: dosed: Novaluron, 0.4000000000 mg/kg, iv, male, Sprague-Dawley
rat [4] = conditions: dosed: Novaluron, 2.0000000000 mg/kg, oral, male, Sprague-Dawley
rat [5] = conditions: dosed: Novaluron, 2.0000000000 mg/kg, oral, male, Sprague-Dawley; remark: listed apart in the source
rat [6] = conditions: dosed: Novaluron, 2.0000000000 mg/kg, oral, male, Sprague-Dawley; remark: listed apart in the source
rat [7] = conditions: dosed: Novaluron, 0.4000000000 mg/kg, iv, male, Sprague-Dawley; remark: listed apart in the source

## COC(=O)C1=C(C#N)NC(C)=C(C(=O)OC(C)C)C1c1cccc([N+](=O)[O-])c1 (stereo not given) [Nilvadipine]
Rat [1]; 0.25 h
  concentration in plasma: 271 ng/mL
Rat [1]; 0.5 h
  concentration in plasma: 160 ng/mL
Rat [1]; 1 h
  concentration in plasma: 75.8 ng/mL
Rat [1]; 2 h
  concentration in plasma: 99.2 ng/mL
Rat [1]; 4 h
  concentration in plasma: 27.8 ng/mL
Rat [1]; 6 h
  concentration in plasma: 22.1 ng/mL
Rat [1]; 8 h
  concentration in plasma: 15 ng/mL
Rat [1]; 10 h
  concentration in plasma: 1.26 ng/mL
Rat [2]; 5 min, dosed: Nilvadipine, 0.1000000000 mg/kg, iv, female
  concentration in plasma: 27.3 ng/mL
Rat [2]; 5 min, dosed: Nilvadipine, 0.1000000000 mg/kg, iv, male
  concentration in plasma: 29.2 ng/mL
Rat [2]; 0.25 h, dosed: Nilvadipine, 0.1000000000 mg/kg, iv, female
  concentration in plasma: 16 ng/mL
Rat [2]; 0.25 h, dosed: Nilvadipine, 0.1000000000 mg/kg, iv, male
  concentration in plasma: 11.8 ng/mL
Rat [2]; 0.25 h, dosed: Nilvadipine, 10.0000000000 mg/kg, oral, male
  concentration in plasma: 34.6 ng/mL
Rat [2]; 0.5 h, dosed: Nilvadipine, 0.1000000000 mg/kg, iv, female
  concentration in plasma: 8 ng/mL
Rat [2]; 0.5 h, dosed: Nilvadipine, 0.1000000000 mg/kg, iv, male
  concentration in plasma: 7.16 ng/mL
Rat [2]; 0.5 h, dosed: Nilvadipine, 10.0000000000 mg/kg, oral, male
  concentration in plasma: 44.3 ng/mL
Rat [2]; 1 h, dosed: Nilvadipine, 0.1000000000 mg/kg, iv, female
  concentration in plasma: 4.43 ng/mL
Rat [2]; 1 h, dosed: Nilvadipine, 0.1000000000 mg/kg, iv, male
  concentration in plasma: 3.5 ng/mL
Rat [2]; 1 h, dosed: Nilvadipine, 10.0000000000 mg/kg, oral, male
  concentration in plasma: 14.6 ng/mL
Rat [2]; 2 h, dosed: Nilvadipine, 0.1000000000 mg/kg, iv, female
  concentration in plasma: 2.48 ng/mL
Rat [2]; 2 h, dosed: Nilvadipine, 0.1000000000 mg/kg, iv, male
  concentration in plasma: 2.19 ng/mL
Rat [2]; 2 h, dosed: Nilvadipine, 10.0000000000 mg/kg, oral, male
  concentration in plasma: 10.7 ng/mL
Rat [2]; 4 h, dosed: Nilvadipine, 0.1000000000 mg/kg, iv, female
  concentration in plasma: 0.674 ng/mL
Rat [2]; 4 h, dosed: Nilvadipine, 0.1000000000 mg/kg, iv, male
  concentration in plasma: 0.824 ng/mL
Rat [2]; 4 h, dosed: Nilvadipine, 10.0000000000 mg/kg, oral, male
  concentration in plasma: 3.01 ng/mL
Rat [2]; 6 h, dosed: Nilvadipine, 0.1000000000 mg/kg, iv, male
  concentration in plasma: 0.387 ng/mL
Rat [2]; 6 h, dosed: Nilvadipine, 10.0000000000 mg/kg, oral, male
  concentration in plasma: 4.89 ng/mL
Rat [2]; 8 h, dosed: Nilvadipine, 10.0000000000 mg/kg, oral, male
  concentration in plasma: 2.84 ng/mL
Rat [2]; 10 h, dosed: Nilvadipine, 10.0000000000 mg/kg, oral, male
  concentration in plasma: 12.2 ng/mL

## O=C(NC(=O)c1c(F)cccc1F)Nc1ccc(OC(F)(F)C(F)OC(F)(F)F)c(Cl)c1 (stereo not given) [Novaluron]
Rat [3]; 5 min
  concentration in plasma: 283 ng/mL
Rat [3]; 10 min
  concentration in plasma: 188 ng/mL
Rat [3]; 0.5 h
  concentration in plasma: 202 ng/mL
Rat [3]; 1 h
  concentration in plasma: 191 ng/mL
Rat [3]; 2 h
  concentration in plasma: 120 ng/mL
Rat [3]; 4 h
  concentration in plasma: 75.9 ng/mL
Rat [3]; 8 h
  concentration in plasma: 34.7 ng/mL
Rat [3]; 12 h
  concentration in plasma: 21.7 ng/mL
Rat [3]; 24 h
  concentration in plasma: 9.78 ng/mL
Rat [3]; 48 h
  concentration in plasma: 5.04 ng/mL
Rat [3]; 72 h
  concentration in plasma: 5.1 ng/mL
Rat [4]; 0.25 h
  concentration in plasma: 14 ng/mL
Rat [4]; 0.5 h
  concentration in plasma: 37.7 ng/mL
Rat [4]; 1 h
  concentration in plasma: 75 ng/mL
Rat [4]; 2 h
  concentration in plasma: 165 ng/mL
Rat [4]; 4 h
  concentration in plasma: 149 ng/mL
Rat [4]; 8 h
  concentration in plasma: 191 ng/mL
Rat [4]; 12 h
  concentration in plasma: 129 ng/mL
Rat [4]; 24 h
  concentration in plasma: 59.6 ng/mL
Rat [4]; 48 h
  concentration in plasma: 40.7 ng/mL
Rat [4]; 72 h
  concentration in plasma: 22.9 ng/mL
Rat [5]; 0.25 h
  concentration in plasma: 5.18 ng/mL
Rat [5]; 0.5 h
  concentration in plasma: 25.3 ng/mL
Rat [5]; 1 h
  concentration in plasma: 70.4 ng/mL
Rat [5]; 2 h
  concentration in plasma: 135 ng/mL
Rat [5]; 4 h
  concentration in plasma: 151 ng/mL
Rat [5]; 8 h
  concentration in plasma: 148 ng/mL
Rat [5]; 12 h
  concentration in plasma: 172 ng/mL
Rat [5]; 24 h
  concentration in plasma: 44.3 ng/mL
Rat [5]; 48 h
  concentration in plasma: 29.8 ng/mL
Rat [5]; 72 h
  concentration in plasma: 14.6 ng/mL
Rat [6]; 0.25 h
  concentration in plasma: 9.95 ng/mL
Rat [6]; 0.5 h
  concentration in plasma: 24 ng/mL
Rat [6]; 1 h
  concentration in plasma: 49.9 ng/mL
Rat [6]; 2 h
  concentration in plasma: 63 ng/mL
Rat [6]; 4 h
  concentration in plasma: 132 ng/mL
Rat [6]; 8 h
  concentration in plasma: 89.1 ng/mL
Rat [6]; 12 h
  concentration in plasma: 117 ng/mL
Rat [6]; 24 h
  concentration in plasma: 81.5 ng/mL
Rat [6]; 48 h
  concentration in plasma: 35 ng/mL
Rat [6]; 72 h
  concentration in plasma: 16.2 ng/mL
Rat [7]; 5 min
  concentration in plasma: 241 ng/mL
Rat [7]; 10 min
  concentration in plasma: 43.2 ng/mL
Rat [7]; 0.5 h
  concentration in plasma: 125 ng/mL
Rat [7]; 1 h
  concentration in plasma: 112 ng/mL
Rat [7]; 2 h
  concentration in plasma: 68.3 ng/mL
Rat [7]; 4 h
  concentration in plasma: 32.7 ng/mL
Rat [7]; 8 h
  concentration in plasma: 31.4 ng/mL
Rat [7]; 12 h
  concentration in plasma: 11.6 ng/mL
Rat [7]; 24 h
  concentration in plasma: 8.64 ng/mL
Rat [2]; 5 min, dosed: Novaluron, 0.4000000000 mg/kg, iv, male
  concentration in plasma: 252 ng/mL
Rat [2]; 10 min, dosed: Novaluron, 0.4000000000 mg/kg, iv, male
  concentration in plasma: 161 ng/mL
Rat [2]; 0.25 h, dosed: Novaluron, 2.0000000000 mg/kg, oral, male
  concentration in plasma: 2.87 ng/mL
Rat [2]; 0.5 h, dosed: Novaluron, 0.4000000000 mg/kg, iv, male
  concentration in plasma: 194 ng/mL
Rat [2]; 0.5 h, dosed: Novaluron, 2.0000000000 mg/kg, oral, male
  concentration in plasma: 23.8 ng/mL
Rat [2]; 1 h, dosed: Novaluron, 0.4000000000 mg/kg, iv, male
  concentration in plasma: 176 ng/mL
Rat [2]; 1 h, dosed: Novaluron, 2.0000000000 mg/kg, oral, male
  concentration in plasma: 70.5 ng/mL
Rat [2]; 2 h, dosed: Novaluron, 0.4000000000 mg/kg, iv, male
  concentration in plasma: 188 ng/mL
Rat [2]; 2 h, dosed: Novaluron, 2.0000000000 mg/kg, oral, male
  concentration in plasma: 137 ng/mL
Rat [2]; 4 h, dosed: Novaluron, 0.4000000000 mg/kg, iv, male
  concentration in plasma: 121 ng/mL
Rat [2]; 4 h, dosed: Novaluron, 2.0000000000 mg/kg, oral, male
  concentration in plasma: 168 ng/mL
Rat [2]; 8 h, dosed: Novaluron, 0.4000000000 mg/kg, iv, male
  concentration in plasma: 48.3 ng/mL
Rat [2]; 8 h, dosed: Novaluron, 2.0000000000 mg/kg, oral, male
  concentration in plasma: 199 ng/mL
Rat [2]; 12 h, dosed: Novaluron, 0.4000000000 mg/kg, iv, male
  concentration in plasma: 21.8 ng/mL
Rat [2]; 12 h, dosed: Novaluron, 2.0000000000 mg/kg, oral, male
  concentration in plasma: 141 ng/mL
Rat [2]; 24 h, dosed: Novaluron, 0.4000000000 mg/kg, iv, male
  concentration in plasma: 15.9 ng/mL
Rat [2]; 24 h, dosed: Novaluron, 2.0000000000 mg/kg, oral, male
  concentration in plasma: 53.2 ng/mL
Rat [2]; 48 h, dosed: Novaluron, 0.4000000000 mg/kg, iv, male
  concentration in plasma: 6.27 ng/mL
Rat [2]; 48 h, dosed: Novaluron, 2.0000000000 mg/kg, oral, male
  concentration in plasma: 25.3 ng/mL
Rat [2]; 72 h, dosed: Novaluron, 0.4000000000 mg/kg, iv, male
  concentration in plasma: 2.8 ng/mL
Rat [2]; 72 h, dosed: Novaluron, 2.0000000000 mg/kg, oral, male
  concentration in plasma: 21.4 ng/mL

Source: EPA's CvTdb concentration-time database (doi:10.1093/toxsci/kfy020)
